# Measured values taken from US20250154173A1 (Merck Sharp & Dohme LLC, priority 2023, published 2025).
# Molecular target: T1, GST-RIPK1 (recombinant GST-RIPK1 kinase domain (residues 1-327)) (Homo sapiens, UniProt Q13546)
# T1 construct: recombinant GST-RIPK1 kinase domain (residues 1-327) enzyme produced from baculovirus-transfected Sf21 cells; host or cells: baculovirus-transfected Sf21 insect cells
# T1 sequence (Q13546 1-327): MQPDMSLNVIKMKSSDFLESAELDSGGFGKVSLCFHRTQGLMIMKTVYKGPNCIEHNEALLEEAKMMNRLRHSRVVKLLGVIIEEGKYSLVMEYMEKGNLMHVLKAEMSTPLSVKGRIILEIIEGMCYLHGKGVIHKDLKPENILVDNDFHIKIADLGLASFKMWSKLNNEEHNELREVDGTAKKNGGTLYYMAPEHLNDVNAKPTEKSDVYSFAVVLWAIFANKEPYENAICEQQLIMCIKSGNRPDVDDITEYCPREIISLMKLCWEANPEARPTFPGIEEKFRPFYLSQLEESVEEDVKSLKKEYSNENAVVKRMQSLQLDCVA
# Test: RIPK1-ADP-Glo Enzymatic Assay
# Assay type: biochemical
# Settings: ten-point titration, top compound concentration of 100000 nM; 25 nM GST-RIPK1, 300 μM ATP, 3 μM dephosphorylated-MBP; 30 min pre-incubation, 150 min reaction
# Protocol: RIPK1-ADP-Glo Enzymatic Assay
# The enzymatic activity of RIPK1 is measured using an assay derived from ADP-Glo kit (TMPromega), which provides a luminescent-based ADP detection system. Specifically, the ADP generated by RIPK1 kinase is proportionally detected as luminescent signals in a homogenous fashion. In this context, the assessment of the inhibitory effect of small molecules (EC50) is measured by the effectiveness of the compounds to inhibit the ATP to ADP conversion by RIPK1.
# In this assay, the potency (EC50) of each compound was determined from a ten-point (1:3 serial dilution; top compound concentration of 100000 nM) titration curve using the following outlined procedure. To each well of a white ProxiPlus 384 well-plate, 30 nL of compound (1% DMSO in final assay volume of 3 μL) was dispensed, followed by the addition of 2 μL of 1× assay buffer (25 mM Hepes 7.3, 20 mM MgCl2, 50 mM NaCl, 1 mM DTT, 0.005% Tween20, and 0.02% BSA) containing 37.5 nM of GST-RIPK1 (recombinant GST-RIPK1 kinase domain (residues 1-327) enzyme produced from baculovirus-transfected Sf21 cells: MW=62 kDa). Plates were placed in an ambient temperature humidified chamber for a 30 minutes pre-incubation with compound. Subsequently, each reaction was initiated by the addition of 1 μL 1× assay buffer containing 900 μM ATP and 3 μM dephosphorylated-MBP substrate. The final reaction in each well of 3 μL consists of 25 nM of GST-RIPK1, 300 μM ATP, and 3 μM dephosphorylated-MBP. Kinase reactions were allowed to proceed for 150 minutes prior to adding ADP-Glo reagents per Promega's outlined kit protocol. Dose-response curves were generated by plotting percent effect (% product conversion; Y-axis) vs. Log 10 compound concentrations (X-axis). EC50 values were calculated using a non-linear regression, four-parameters sigmoidal dose-response model.
row,Structure (SMILES),EC50
1,"CC1(Oc2cc(C(N)=O)ncn2)CC2(C1)O[C@@H]1CC[C@@H](c3cc(F)cc(F)c3)N1C2=O (stereo partly drawn) [Example 5.2, 6-(((5′S,7a′R)-5′-(3,5-difluorophenyl)-3-methyl-3′-oxotetrahydro-3′H-spiro[cyclobutane-1,2′-pyrrolo[2,1-b]oxazol]-3-yl)oxy)pyrimidine-4-carboxamide]",121 nM
2,"O=C1N2[C@@H](CC[C@H]2c2cnccn2)O[C@]12C[C@H](Oc1ccc(F)cc1F)C2 [Example 7.1, (1r,3R,5′S,7a′R)-3-(2,4-difluorophenoxy)-5′-(pyrazin-2-yl)tetrahydro-3′H-spiro[cyclobutane-1,2′-pyrrolo[2,1-b]oxazol]-3′-one]",20 nM
3,"O=C1N2[C@@H](CC[C@H]2c2cnccn2)O[C@]12C[C@@H](Oc1ccc(F)cc1F)C2 [Example 7.2, (1s,3S,5′S,7a′R)-3-(2,4-difluorophenoxy)-5′-(pyrazin-2-yl)tetrahydro-3′H-spiro[cyclobutane-1,2′-pyrrolo[2,1-b]oxazol]-3′-one]",18 nM
4,"N#Cc1ccc(O[C@H]2C[C@@]3(C2)O[C@@H]2CC[C@@H](c4ccccc4)N2C3=O)cc1F [Example 8.1, 2-fluoro-4-(((1r,3R,5′S,7a′R)-3′-oxo-5′-phenyltetrahydro-3′H-spiro[cyclobutane-1,2′-pyrrolo[2,1-b]oxazol]-3-yl)oxy)benzonitrile]",31 nM
5,"N#Cc1ccc(OC2CC3(C2)O[C@@H]2CC[C@@H](c4ccccc4)N2C3=O)cn1 (stereo partly drawn) [Example 8.2, 5-{[(5′S,7a′R)-3′-oxo-5′-phenyltetrahydro-3′H-spiro[cyclobutane-1,2′-pyrrolo[2,1-b][1,3]oxazol]-3-yl]oxy}pyridine-2-carbonitrile]",251 nM
6,"N#Cc1ccc(F)c(OC2CC3(C2)O[C@@H]2CC[C@@H](c4ccccc4)N2C3=O)c1 (stereo partly drawn) [Example 8.3, 4-fluoro-3-{[(5′S,7a′R)-3′-oxo-5′-phenyltetrahydro-3′H-spiro[cyclobutane-1,2′-pyrrolo[2,1-b][1,3]oxazol]-3-yl]oxy}benzonitrile]",20 nM
7,"O=C1N2[C@@H](CC[C@H]2c2ccccc2)OC12CC(Oc1ccnc(C(F)(F)F)c1)C2 (stereo partly drawn) [Example 8.4, (5′S,7a′R)-5′-phenyl-3-{[2-(trifluoromethyl)pyridin-4-yl]oxy}tetrahydro-3′H-spiro[cyclobutane-1,2′-pyrrolo[2,1-b][1,3]oxazol]-3′-one]",86 nM
8,"N#Cc1cccc(OC2CC3(C2)O[C@@H]2CC[C@@H](c4ccccc4)N2C3=O)c1 (stereo partly drawn) [Example 8.5, 3-{[(5′S,7a′R)-3′-oxo-5′-phenyltetrahydro-3′H-spiro[cyclobutane-1,2′-pyrrolo[2,1-b][1,3]oxazol]-3-yl]oxy}benzonitrile]",20 nM
9,"COc1cncc(OC2CC3(C2)O[C@@H]2CC[C@@H](c4ccccc4)N2C3=O)c1 (stereo partly drawn) [Example 8.6, (5′S,7a′R)-3-[(5-methoxypyridin-3-yl)oxy]-5′-phenyltetrahydro-3′H-spiro[cyclobutane-1,2′-pyrrolo[2,1-b][1,3]oxazol]-3′-one]",65 nM
10,"O=C1N2[C@@H](CC[C@H]2c2ccccc2)OC12CC(Oc1ccncc1F)C2 (stereo partly drawn) [Example 8.7, (5′S,7a′R)-3-[(3-fluoropyridin-4-yl)oxy]-5′-phenyltetrahydro-3′H-spiro[cyclobutane-1,2′-pyrrolo[2,1-b][1,3]oxazol]-3′-one]",74 nM
11,"O=C1N2[C@@H](CC[C@H]2c2ccccc2)OC12CC(Oc1cncc(C(F)(F)F)c1)C2 (stereo partly drawn) [Example 8.8, (5′S,7a′R)-5′-phenyl-3-{[5-(trifluoromethyl)pyridin-3-yl]oxy}tetrahydro-3′H-spiro[cyclobutane-1,2′-pyrrolo[2,1-b][1,3]oxazol]-3′-one]",155 nM
12,N#Cc1ccc(OC2CC3(C2)O[C@@H]2CC[C@@H](c4ccccc4)N2C3=O)cc1 (stereo partly shown) [Example 8.9],72 nM
13,"O=C1N2[C@@H](CC[C@H]2c2ccccc2)OC12CC(Oc1cccc(F)c1)C2 (stereo partly drawn) [Example 8.10, (5′S,7a′R)-3-(3-fluorophenoxy)-5′-phenyltetrahydro-3′H-spiro[cyclobutane-1,2′-pyrrolo[2,1-b][1,3]oxazol]-3′-one]",11 nM
